Measured values published in patent US7662851B2, “Use of specific cyklolignans” (Axelar AB, priority 2001, dated 2010).

Key:
[1] = Systemic toxicity, daily intraperitoneal injection in nude mice; conditions: for Signs of disease: up to 5 days
Experimental: Four to five-week old pathogen-free nude mice (nu/nu) were used and housed within plastic isolators in a sterile facility. […] Experimental treatments with podophyllotoxin, deoxypodophyllotoxin or picropodophyllin were performed by daily intraperitoneal injections of the compound in 100 μl volume of solvent, composed of a mixture of DMSO and physiological saline (8:2). Control mice were treated with the solvent. 3-6 animals were treated in each group. Animals were monitored three times a week for signs of disease and tumor growth. Tumor mass was estimated using the formula (d^2×D)/2, where d and D represent the small and large diameters of the tumor, respectively. The mice were carefully observed for presence of side effects and were sacrificed at the end of the experiments for histological analysis of the lesions. All experiments were performed according to the ethical guidelines for laboratory animal use, provided by institutional ethical committee.
In the next experiment we analyzed systemic effects of the drugs by injecting 100 μl intraperitoneally of each compound daily over 5 days. Two doses were injected (7 or 28 mg/kg/d) and 3-6 mice were used for each drug and dose. The mice were checked carefully daily for signs of discomfort, diseases and weight loss.

[2] = test system: HL60/0 acute myeloid leukemia cells; test: Leukemia cell viability, HL60/0; assay type: cell-based, human; conditions: Homo sapiens, HL-60; HL60, 72 h; read-out: IC50 for cell viability
Experimental: The human chronic myeloid leukemia K562/S and K562/Vcr30 lines and the acute myeloid leukemia cell lines HL60/0 and HL60/Nov were obtained from ATCC. The K562/S and […] are wild type (non-resistant) cells, whereas K562/Vcr30 and HL60/Nov are cytostatic-resistant sublines. All leukemia cell lines were cultured in RPMI 1640 medium supplemented with 10% fetal bovine serum and with 2 mM L-glutamine, benzylpenicillin (100 U/ml) and streptomycin (100 μg/ml). The cells were grown in tissue culture flasks maintained at 95% air/5% CO2 atmosphere at 37° C. in a humidified incubator. For the experiments cells were cultured in 60-mm plastic dishes or 96-well plastic plates.
(§1) Cell proliferation kit II (Roche Inc.) is based on colorimetric change of the yellow tetrazolium salt XTT in orange formazan dye by the respiratory chain of viable cells (Roehm, N W, et al., J Immunol Methods 142:257-265, 1991). Cells seeded at a concentration of 5000/well in 100 μl medium in a 96-well plate were treated with different drugs in the given concentration. After 24 or 48 h the cells were incubated, according to the manufacturer's protocol, with XTT labelling mixture. After 4 h the formazan dye is quantified using a scanning multiwell spectrophotometer with a 495-nm filter. The absorbance is directly correlated with the number of viable cells. The standard absorbance curve was drawn by means of untreated cells seeded at a concentration of from 1000 to 10 000 cells/well with an increasing rate of 1000 cells/well. All standards and experiments were performed in triplicates.
Cells of said cell lines were seeded in 96-well plates (25 000 cells/well, medium volume per well was 100 μl), in […] medium supplemented with fetal calf serum. After 24 h picropodophyllin and the derivatives alpha-apopicropodophyllin and beta-apopicropodo-phyllin were added at different concentrations and the cells were incubated for 72 h. Cell viability was then assayed (see above). […] The results are based on 3 different experiments.
The leukemia cell lines K562/S, […], HL60/0 and HL60/Nov were cultured in 96-well plates as described in Experiment 7. After 24 h, the cells were treated for 72 h with different concentrations of the anti-cancer agent vincristine, with and without co-incubation with 0.05 μM picropodophyllin. […] Cell viability was then assayed. IC50 values for each inhibitor and cell line are shown below (Table 8). The results are based on 3 different experiments.

[3] = nude, mouse, in vivo, ip, 28 mg/kg
[4] = test system: microtubule polymerisation; conditions: cited from earlier work
[5] = test system: BE malignant melanoma cell line; test: Cell viability (XTT), BE; assay type: cell-based; conditions: 48 h
Experimental: as §1
12 different types of cell lines were seeded in 96-well plates (medium volume in a well was 100 μl), at a concentration of 10,000 cells/cm^2 in Minimal Essential Medium supplemented with fetal calf serum. When the cells had reached a concentration of 65,000 cells/cm^2, they were treated with different doses of podophyllotoxin and picropodophyllin for 48 h. Cell viability was then assayed (see above). […]

SMILES	Surviving mice/Investigated mice ([1]; 7 mg/kg/d i.p., 1 d)	Surviving mice/Investigated mice ([1]; 7 mg/kg/d i.p., 2 d)	Surviving mice/Investigated mice ([1]; 7 mg/kg/d i.p., 3 d)	Surviving mice/Investigated mice ([1]; 7 mg/kg/d i.p., 4 d)	Surviving mice/Investigated mice ([1]; 7 mg/kg/d i.p., 5 d)	Surviving mice/Investigated mice ([1]; 28 mg/kg/d i.p., 1 d)	Surviving mice/Investigated mice ([1]; 28 mg/kg/d i.p., 2 d)	Surviving mice/Investigated mice ([1]; 28 mg/kg/d i.p., 3 d)	Surviving mice/Investigated mice ([1]; 28 mg/kg/d i.p., 4 d)	Surviving mice/Investigated mice ([1]; 28 mg/kg/d i.p., 5 d)	Signs of disease ([1]; high dose (28 mg/kg/d) i.p. daily)	Signs of disease ([1]; low dose (7 mg/kg/d) i.p. daily)	IC50 [2] [nM]	Average concentration in the blood plasma [3]	Fold lower inhibitory effect on microtubule polymerisation than podophyllotoxin [4] [fold]	EC50 [5] [nM]	Animals dead within 2 days ([1]; high dose (28 mg/kg/d) i.p.) [%]	Animals dead within 2 days ([1]; low dose (7 mg/kg/d) i.p.) [%]
COc1cc([C@@H]2c3cc4c(cc3[C@H](O)[C@H]3COC(=O)[C@@H]23)OCO4)cc(OC)c1OC [Picropodophyllin, picropodophyllin]	3/3	3/3	3/3	3/3	3/3	6/6	6/6	6/6	6/6	6/6	did not exhibit any evidence of disease	did not exhibit any evidence of disease	170	above 0.05 μM	50	–	–	–
COc1cc([C@@H]2c3cc4c(cc3[C@H](O)[C@H]3COC(=O)[C@H]23)OCO4)cc(OC)c1OC [Podophyllotoxin, podophyllotoxin]	3/3	1/3	0/3	–	–	2/6	0/6	–	–	–	–	–	–	–	–	50	100	67
